According to patent publication US20220389008A1, “4-QUINOLINONE ANTIBACTERIAL COMPOUNDS” (Janssen Sciences Ireland Unlimited Company, priority 2019, published 2022):
Values joined by “and” are separate entries in the source; they are usually repeats but may differ in a detail not shown here. Equal entries are not always repeated. Where two headings read alike, the source gives them in different places.

Experiments:
[1] = test system: M. tuberculosis (strain H37Rv and H37Ra); assay: Time kill kinetics assay (Test 3); assay type: cell-based, Mycobacterium tuberculosis
Method: Time Kill Kinetics Assays: Test 3
Bactericidal or bacteriostatic activity of the compounds can be determined in a time kill kinetic assay using the broth dilution method. In this assay, the starting inoculum of M. tuberculosis (strain H37Rv and H37Ra) is 10^6 CFU/ml in Middlebrook (1×) 7H9 broth. The test compounds (cyt bd inhibitors) are tested in combination with a cyt bc inhibitor (for example Q203 or Compound X) at the concentration ranging from 10-30 μM to 0.9-0.3 μM respectively. Tubes receiving no antibacterial agent constitute the culture growth control. The tubes containing the microorganism and the test compounds are incubated at 37° C. After 0, 1, 4, 7, 14 and 21 days of incubation samples are removed for determination of viable counts by serial dilution (10^0 to 10^−6) in Middlebrook 7H9 medium and plating (100 μl) on Middlebrook 7H11 agar. The plates are incubated at 37° C. for 21 days and the number of colonies are determined. Killing curves can be constructed by plotting the log10 CFU per ml versus time. A bactericidal effect of a cytochrome be and cytochrome bd inhibitor (either alone or in combination) is commonly defined as 2-log10 decrease (decrease in CFU per ml) compared to Day 0. The potential carryover effect of the drugs is limited by using 0.4% charcoal in the agar plates, and by serial dilutions and counting the colonies at highest dilution possible used for plating.
Compounds of the examples are/were tested in Test 3 (the kill kinetics) described above, obtaining results expressed as a log reduction in CFUs per ml as compared to Day 0.

[2] = test system: Mycobacterium tuberculosis strain H37Rv ΔctaE-ΔqcrCAB; assay: microbe, parasite or virus in culture; assay type: cell-based; settings: 240 h
[3] = test system: Mitochondrial toxicity (Glu/Gal); assay: Mitochondrial toxicity (Glu/Gal) assay; assay type: cell-based; set-up: key to Score: “negative” means that in the test, it was found to have low mitotoxicity (and hence no mitotoxicity alerts); “positive” means that there were some mitotoxicity alerts; “inconclusive” means that no accurate conclusion could be drawn; settings: for Score: mitotoxicity score; for Δ IC50,glu/IC50,gal: ratio glu/gal
rCaCh = assay: CVS / cardio tox rCaCh; assay type: binding, rat
rNaCh = assay: CVS / cardio tox rNaCh; assay type: binding, rat
hERG = hERG (Homo sapiens, UniProt Q12809); assay: CVS / cardio tox hERG (DOF); assay type: binding
[4] = test system: Mycobacterium tuberculosis (strain H37Ra), cyt bd; settings: Mtb H37Ra; for (i) % OCR after cyt bd inhibitor: test compound 10 μM added after Compound X 0.9 μM; for (ii) % OCR after cccp: test compound 10 μM after Compound X 0.9 μM, then CCCP 1 μM
h-cardiomyocytes = assay: CTCM Ca2+ transient h-cardiomyocytes HTS; settings: 0.1 μm, 0.2 μm, 0.5 μm, 1 μm, 2.5 μm, 5 μm
[5] = GSH and CN adducts (reactive metabolite formation)
[6] = Compound X alone 0.17 μg/ml, Log Day 0 6.66
[7] = galactose medium, read-out: IC50, gal
[8] = glucose medium, read-out: IC50, glu
[9] = read-out: Cardio tox rNaCH (IC50)
[10] = DOF, read-out: Cardio tox hERG(DOF) (IC50)
[11] = compound alone 12 μg/ml, Log Day 0 5.56 (Q203 experiment)
[12] = compound alone 12 μg/ml, Log Day 0 6.66
[13] = Q203 alone 0.168 μg/ml, Log Day 0 5.56

hERG, sequence (Q12809 whole entry): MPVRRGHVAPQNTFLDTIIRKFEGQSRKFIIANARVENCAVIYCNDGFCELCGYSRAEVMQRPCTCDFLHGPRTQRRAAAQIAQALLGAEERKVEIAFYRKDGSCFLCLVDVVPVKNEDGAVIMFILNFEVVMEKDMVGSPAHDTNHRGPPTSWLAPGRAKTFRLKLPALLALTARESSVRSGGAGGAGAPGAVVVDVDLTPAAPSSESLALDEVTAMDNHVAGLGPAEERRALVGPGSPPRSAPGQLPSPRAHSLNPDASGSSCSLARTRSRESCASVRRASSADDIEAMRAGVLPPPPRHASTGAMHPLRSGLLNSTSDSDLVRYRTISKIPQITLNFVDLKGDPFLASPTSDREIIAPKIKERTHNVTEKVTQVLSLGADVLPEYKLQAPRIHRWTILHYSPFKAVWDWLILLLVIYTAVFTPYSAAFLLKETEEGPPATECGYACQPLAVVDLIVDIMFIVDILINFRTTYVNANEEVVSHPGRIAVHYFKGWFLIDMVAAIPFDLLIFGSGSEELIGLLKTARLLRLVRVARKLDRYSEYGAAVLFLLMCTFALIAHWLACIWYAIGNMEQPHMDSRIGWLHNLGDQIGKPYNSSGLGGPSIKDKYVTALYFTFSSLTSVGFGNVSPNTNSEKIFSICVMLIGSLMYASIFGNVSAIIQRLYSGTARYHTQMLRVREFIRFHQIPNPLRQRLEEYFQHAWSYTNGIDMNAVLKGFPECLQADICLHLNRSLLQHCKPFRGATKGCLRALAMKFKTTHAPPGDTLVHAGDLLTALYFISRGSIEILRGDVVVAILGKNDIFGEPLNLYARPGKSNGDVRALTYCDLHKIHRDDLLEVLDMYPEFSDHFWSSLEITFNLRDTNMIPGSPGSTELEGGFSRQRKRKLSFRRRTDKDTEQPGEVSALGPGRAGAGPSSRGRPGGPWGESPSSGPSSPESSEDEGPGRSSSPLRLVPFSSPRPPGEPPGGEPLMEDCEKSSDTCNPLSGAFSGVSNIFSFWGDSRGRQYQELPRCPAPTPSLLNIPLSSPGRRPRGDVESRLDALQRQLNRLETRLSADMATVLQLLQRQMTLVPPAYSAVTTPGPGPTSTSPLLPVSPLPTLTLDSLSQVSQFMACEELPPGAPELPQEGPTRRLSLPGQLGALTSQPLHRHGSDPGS

| SMILES | IC50 [2] [µM] | IC50 [3, 7] | IC50 [3, 8] | Score [3] | Δ IC50,glu/IC50,gal [3] | Cardio tox rCaCh IC50 (µM) (rCaCh) | IC50 (rNaCh; [9]) [µM] | IC50 (hERG; [10]) [µM] | (i) % OCR after cyt bd inhibitor [4] [%] | (ii) % OCR after cccp [4] [%] | also measured |
| --- | --- | --- | --- | --- | --- | --- | --- | --- | --- | --- | --- |
| CCc1nc2ccc(Cl)cn2c1C(=O)NCc1ccc(C2CC3(C2)CN(S(=O)(=O)C(F)(F)F)C3)cc1 [Compound X, 6-chloro-2-ethyl -N-({4-[2-(trifluoromethanesulfonyl)-2-azaspiro[3.3]heptan-6-yl]phenyl}methyl)imidazo[1,2-a]pyridine-3-carboxamide, reference compound] |  |  |  |  |  |  |  |  |  |  | Log Day 21 [1, 6]: 5.93 log CFUs per ml; Log Day 21-Log Day 0 [1, 6]: −0.73 log CFUs per ml |
| Cc1c(-c2cn3cc(Cc4ccc(OC(F)(F)F)cc4)ccc3n2)[nH]c2ccccc2c1=O [Compound 63] | 76.2 | 96.8 µM | 200 µM | inconclusive | >1.7 | > 3.0 | 2.8 | > 10 | 85.8 | 157.9 |  |
| Cc1c(-c2nc3ccc(-c4ccc(OC(F)(F)F)nc4)cn3n2)[nH]c2ccccc2c1=O [Compound 26] | 7.69 | 9.59 µM | 13.3 µM | negative | [x]1.39 | >10, >10, >10 | > 10 | > 10 | 71 | 116.7 |  |
| Cc1c(-c2nc3ccc(-c4ccc(OC(F)(F)F)cc4)cn3n2)[nH]c2ccccc2c1=O [Compound 6] | 0.653 | 21.9 µM and 22.1 µM | 15.6 µM and 26.5 µM | negative | 1.2 |  |  |  | 39.7 | 58.4 | Log Day 21 [1, 11]: 8.64 log CFUs per ml; Log Day 21-Log Day 0 [1, 11]: +3.08 log CFUs per ml; Log Day 21 [1, 12]: 9.06 log CFUs per ml; Log Day 21-Log Day 0 [1, 12]: +2.40 log CFUs per ml; Δ IC50,glu/IC50,gal ([3]; listed as 6 (repeat)): 1.4; IC50 (rCaCh; CVS): > 10 µM; IC50 (rNaCh; CVS, read-out: rNaCh IC50): > 10 µM; IC50 (hERG; CVS, read-out: hERG IC50): > 10 µM; AMES II b (+/−rat S9) (AMES II b (+/−rat S9)): negative; CI (PK parameters in mice; mice): 1.69 mL/min/kg; Fab % (PK parameters in mice; mice): 64%; half-life (PK parameters in mice; mouse, in vivo): 5.6 h; CTCM Ca2+ transient h-cardiomyocytes HTS (h-cardiomyocytes): all no; GSH and CN adducts [5]: negative |
| Cc1c(-c2cn3cc(Oc4ccc(OC(F)(F)F)cc4)ccc3n2)[nH]c2ccccc2c1=O [Compound 44] | 9.75 | 58.5 µM | 47.8 µM | negative | 0.8 | 3.8 | 1.2 | 1.5 | 76 | 138.6 |  |
| Cc1c(-c2nc3ccc(-c4cccc(OC(F)(F)F)c4)cn3n2)[nH]c2ccccc2c1=O [Compound 7] | 1.41 | 20 µM | 20 µM | negative | [x]0 |  |  |  | 36.5 | 54.6 | Log Day 21 [1, 12]: 9.13 log CFUs per ml; Log Day 21-Log Day 0 [1, 12]: +2.47 log CFUs per ml |
| Cc1c(-c2cc3cc(-c4ccc(OC(F)(F)F)cc4)ccn3c2)[nH]c2ccccc2c1=O [Compound 25] | 3.09 | 9.9 µM | 200 µM | positive | >20.2 | >10, >10, >10 | > 10 | > 10 | 65.2 | 114.3 |  |
| Cc1c(-c2nc3ccc(Br)cn3n2)[nH]c2ccccc2c1=O [Compound 55] | 36.1 | 200 µM and 100 µM | 200 µM and 100 µM | negative | [x]0;[x]0 | >10, >10, >10 | > 10 | > 10 | 109.2 | 148.3 |  |
| Cc1c(-c2cn3ccc(Cc4ccc(OC(F)(F)F)cc4)cc3n2)[nH]c2ccccc2c1=O [Compound 52] | > 100 | 108 µM | 134 µM | negative | 1.2 | ~1.9 | 7.4 | > 10 | 82.2 | 148.1 |  |
| CCc1nc2ccc(Cl)cn2c1C(=O)NCc1ccc(N2CCC(c3ccc(OC(F)(F)F)cc3)CC2)cc1 [Compound Q203, 6-chloro-2-ethyl-N-(4-(4-(4-(trifluoromethoxy)phenyl)piperidin-1-yl)benzyl)imidazo[1,2-a]pyridine-3-carboxamide, reference compound] |  |  |  |  |  |  |  |  |  |  | Log Day 21 [1, 13]: 2.59 log CFUs per ml; Log Day 21-Log Day 0 [1, 13]: −2.97 log CFUs per ml |
| Cc1c(-c2nc3cc(-c4ccc(OC(F)(F)F)cc4)ccn3n2)[nH]c2ccccc2c1=O [Compound 2] | 1.33 | 100 µM | 100 µM | negative | [x]0 |  |  |  | 24.8 | 38.3 | Log Day 21 [1, 11]: 8.69 log CFUs per ml; Log Day 21-Log Day 0 [1, 11]: +3.13 log CFUs per ml |
| Cc1c(-c2cc3ccc(-c4ccc(OC(F)(F)F)cc4)cn3c2)[nH]c2ccccc2c1=O [Compound 22] | 3.75 | 9.9 µM | 140 µM | positive | >13.3 | > 10 | 6.9 | > 10 | 82.7 | 109.8 |  |
| Cc1c(-c2nc3ccc(F)cn3n2)[nH]c2ccccc2c1=O [Compound 33] | > 100 | 100 µM | 100 µM | negative | [x]0 | >10, >10, >10 | > 10 | > 10 | 61.2 | 123.6 |  |
